Source: patent publication US6022699A, “Myeloperoxidase assay of endotoxin-induced inflammation” (Alcon Laboratories, Inc., priority 1999, dated 2000)
Entries after “also recorded” stand apart in the source; their conditions may differ.

Legend:
[1] = biological target: T1, Human sputum myeloperoxidase (HSMPO) (Homo sapiens, UniProt P05164); experiment: Spectrophotometric (460 nm) assay of MPO-catalyzed oxidation of o-DA; format: biochemical
T1 construct: mature light and heavy chains from one precursor
T1 sequence (P05164 165-745): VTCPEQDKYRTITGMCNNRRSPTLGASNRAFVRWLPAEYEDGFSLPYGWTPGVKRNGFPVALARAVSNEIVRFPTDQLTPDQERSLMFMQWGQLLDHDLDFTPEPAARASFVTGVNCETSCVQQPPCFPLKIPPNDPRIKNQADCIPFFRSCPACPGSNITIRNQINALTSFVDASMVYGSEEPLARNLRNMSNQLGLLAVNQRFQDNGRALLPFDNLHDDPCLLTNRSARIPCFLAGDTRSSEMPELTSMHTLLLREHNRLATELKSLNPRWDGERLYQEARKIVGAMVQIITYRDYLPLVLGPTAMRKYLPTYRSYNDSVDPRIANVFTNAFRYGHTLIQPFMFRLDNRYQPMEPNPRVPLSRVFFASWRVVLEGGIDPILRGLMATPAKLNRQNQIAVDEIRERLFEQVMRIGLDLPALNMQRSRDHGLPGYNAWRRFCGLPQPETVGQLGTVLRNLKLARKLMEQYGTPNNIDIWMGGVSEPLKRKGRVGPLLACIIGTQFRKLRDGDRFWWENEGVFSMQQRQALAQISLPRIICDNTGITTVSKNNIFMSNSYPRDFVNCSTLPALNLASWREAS
Procedure: N-ethylmaleimide (NEM), o-DA (3,3'-dimethoxybenzidine dihydrochloride), HTA-Br, LPS (lipopolysaccharide, E. coli 0111:B4), heparin, dexamethasone,histopaque 1083 and histopaque 1119 were obtained from Sigma Chemical Company, St. Louis, Mo. Dextran-100 was a product of Crescent Chemical Company, Hauppauge, N.Y. Hydrogen peroxide (30%) was obtained from J. T. Baker and stored at 4° C. All other chemicals used were of the highest purity available. Human sputum myeloperoxidase (HSMPO) was obtained from Elastin Products Co., Pacific, Mo. The enzyme (2.4 mg solid) was dissolved in 2.4 mL of 50 mM potassium phosphate buffer (pH 6.0), and stored in 0.1 mL aliquots at -20° C., then diluted 10-fold with 50 mM potassium phosphate buffer (pH 6.0) to provide a HSMPO concentration of 0.1 mg/mL.
To evaluate potential assay interference by ASC, conditions were selected which permitted the spectrophotometric assessment of ASC effects on the extent of o-DA oxidation. This was accomplished using sub-saturating concentrations of H2 O2 (37 mM), 1.5 mM o-DA a nd excess enzyme. MPO activity was assayed at room temperature in a final volume of 3.0 mL containing 50 mM potassium phosphate buffer (pH 6.0), 37 mM H2 O2, and 1.5 mM o-DA. Reactions were initiated by addition of 2 mg HSMPO: (a) control reaction, (b) ASC (3.2 mM) added 3.6 minutes after initiation of the reaction, (c) ASC (32 mM) added just prior to the initiation of the reaction and (d) ASC (64 mM) added just prior to the initiation of the reaction.
The effect of GSH on o-DA oxidation by HSMPO was assessed in an analogous fashion. MPO activity was assayed at room temperature in 3.0 mL of 50 mM potassium phosphate (pH 6.0), supplemented with 37 mM H2 O2, and 1.5 mM o-DA. (a) HSMPO (2 mg) was added 2 minutes after addition of NEM (6.6 mM) and GSH (1.65 mM), (b) NEM (6.6 mM) was added 5 minutes prior to addition of HSMPO (2 mg) (c) GSH (3.3 mM) was added 3.5 minutes after initiation of the reaction by addition of HSMPO (2 mg), (d) GSH (0.33 mM) was added just prior to initiation of the reaction with HSMPO (2 mg) with NEM (6.6 mM) added 20 seconds following initiation of the reaction, (e) GSH (0.33 mM) was added just prior to initiation of the reaction with HSMPO (2 mg) with NEM (6.6 mM) added 1.0 minute following initiation of the reaction, and (f) GSH (1.65 mM) was added just prior to initiation of the reaction.

[2] = test system: PMN infiltrates within the different compartments of the eye; experiment: Histopathologic evaluation of PMN infiltrates in eye sections; format: in vivo, Lewis rat; conditions: topical dexamethasone-treated animals
Procedure: Inhibition of PMN influx into ocular tissue of the Lewis rat by dexamethasone was evaluated as follows. Dexamethasone suspensions were prepared in a carbopol ophthalmic suspension vehicle at concentrations of 0.0033%, 0.01%, 0.033%, 0.04% and 0.10%, w/v. A 5 μL aliquot of test drug or vehicle was applied topically to each eye of the experimental animals 24, 20, and 4 hours prior to, at the time of, and 4 and 20 hours after LPS foot pad injection. Twenty-four (24) hours following LPS administration, eyes were enucleated, quickly frozen on dry ice and stored at -70° C. until used for tissue extraction and assessment of MPO activity. Alternatively, eyes were enucleated and fixed in a solution of phosphate buffered (40 mM) formalin (4%), pH 6.0. Eyes were embedded in paraffin and sectioned. Using light microscopy, hematoxylin- and eosin-stained sections were examined for the presence and distribution of PMN infiltrates within the different compartments of the eye. Infiltrates were ranked subjectively on a scale ranging from 0 to 5, where 0=not remarkable, 1=minimal, 2=slight/mild, 3=moderate, 4=moderately severe, and 5=severe/high.

## O=C1O[C@H]([C@@H](O)CO)C(O)=C1O [ASC, ascorbic acid]
[1]; ASC 3.2 mM added to control reaction when enzyme catalysis had ceased
  effect on the 460 nm absorbance attained: little effect
[1]; ASC 64 mM added just prior to initiation
  development of absorbance at 460 nm: fully abolished
[1]; concentration dependent
  interference in the spectrophotometric assay of MPO, ASC compared with GSH: more effective than GSH

## N[C@@H](CCC(=O)N[C@@H](CS)C(=O)NCC(=O)O)C(=O)O [GSH, glutathione]
[1]; GSH 1.65 mM present at the initiation of the MPO reaction
  increase in 460 nm absorbancy: fully prevented
[1]; GSH 3.3 mM added to control peroxidase reactions that had ceased
  change in absorbancy: little change in absorbancy

## CCN1C(=O)C=CC1=O [NEM, N-ethylmaleimide]
[1]; NEM 6.6 mM added together with GSH 1.65 mM 2 minutes prior to addition of enzyme
  inhibitory effect of GSH: fully abolished
[1]; NEM alone (6.6 mM), absence of GSH
  effect on MPO activity: does not affect MPO catalysis; also recorded: little effect on MPO activity

## C[C@@H]1C[C@H]2[C@@H]3CCC4=CC(=O)C=C[C@]4(C)[C@@]3(F)[C@@H](O)C[C@]2(C)[C@@]1(O)C(=O)CO [dexamethasone]
[2]
  PMNs in anterior and posterior compartments and associated ocular tissue (histopathology): dose dependent decline in PMNs
